Activity calls are given as the source filed them. The rule behind the calls is not given here.
Legend:
[1] = system: PC-12; experiment: Neuroprotective activity against 6-OHDA-induced cytotoxicity in rat PC-12 cells at 30 uM for 4 hrs followed by exposure to 6-OHDA measured after 24 hrs by MTT assay; assay type: functional, cell-based; details: time 28.0 hrs
[2] = system: PC-12; experiment: Cytotoxicity in rat PC-12 cells assessed as cell viability measured at 10 uM for 24 hrs by MTT assay; assay type: functional, cell-based
[3] = system: PC-12; experiment: Neuroprotective activity against 6-OHDA-induced cytotoxicity in rat PC-12 cells at 10 uM for 4 hrs followed by exposure to 6-OHDA measured after 24 hrs by MTT assay; assay type: functional, cell-based; details: time 28.0 hrs
[4] = system: PC-12; experiment: Cytotoxicity in rat PC-12 cells assessed as cell viability measured at 10 to 30 uM for 24 hrs by MTT assay; assay type: functional, cell-based; details: dose 10-30 µM
[5] = system: PC-12; experiment: Cytotoxicity in rat PC-12 cells assessed as cell viability measured upto 30 uM for 24 hrs by MTT assay relative to control; assay type: functional; details: up to 30 µM
[6] = system: PC-12; experiment: Neuroprotective activity against 6-OHDA-induced cytotoxicity in rat PC-12 cells at 10 to 30 uM for 4 hrs followed by exposure to 6-OHDA measured after 24 hrs by MTT assay; assay type: functional, cell-based; details: dose 10-30 µM, time 28.0 hrs
[7] = system: PC-12; experiment: Neuroprotective activity against 6-OHDA-induced cytotoxicity in rat PC-12 cells at 0.1 uM for 4 hrs followed by exposure to 6-OHDA measured after 24 hrs by MTT assay; assay type: functional, cell-based; details: time 28.0 hrs
[8] = biological target: T1, Monoamine oxidase (Mus musculus, UniProt Q8BW75+Q64133); experiment: Inhibition of mouse brain mitochondrial MAO using kynuramine as substrate incubated for 15 mins measured fluorometric analysis; assay type: mitochondria, Mitochondria
T1 sequence (Q8BW75 whole entry): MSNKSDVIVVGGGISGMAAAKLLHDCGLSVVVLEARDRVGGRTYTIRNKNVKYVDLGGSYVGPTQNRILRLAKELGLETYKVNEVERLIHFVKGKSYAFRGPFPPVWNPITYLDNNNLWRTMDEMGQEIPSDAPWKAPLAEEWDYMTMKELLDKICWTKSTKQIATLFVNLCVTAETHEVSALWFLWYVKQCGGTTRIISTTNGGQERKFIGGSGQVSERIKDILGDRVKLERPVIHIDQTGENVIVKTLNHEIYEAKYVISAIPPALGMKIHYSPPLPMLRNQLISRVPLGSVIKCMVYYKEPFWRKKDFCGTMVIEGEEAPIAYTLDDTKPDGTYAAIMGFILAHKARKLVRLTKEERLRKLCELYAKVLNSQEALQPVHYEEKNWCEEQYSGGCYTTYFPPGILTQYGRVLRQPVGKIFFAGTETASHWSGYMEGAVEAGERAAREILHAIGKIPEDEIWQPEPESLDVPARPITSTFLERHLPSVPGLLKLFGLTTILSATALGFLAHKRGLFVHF
T1 sequence (Q64133 whole entry): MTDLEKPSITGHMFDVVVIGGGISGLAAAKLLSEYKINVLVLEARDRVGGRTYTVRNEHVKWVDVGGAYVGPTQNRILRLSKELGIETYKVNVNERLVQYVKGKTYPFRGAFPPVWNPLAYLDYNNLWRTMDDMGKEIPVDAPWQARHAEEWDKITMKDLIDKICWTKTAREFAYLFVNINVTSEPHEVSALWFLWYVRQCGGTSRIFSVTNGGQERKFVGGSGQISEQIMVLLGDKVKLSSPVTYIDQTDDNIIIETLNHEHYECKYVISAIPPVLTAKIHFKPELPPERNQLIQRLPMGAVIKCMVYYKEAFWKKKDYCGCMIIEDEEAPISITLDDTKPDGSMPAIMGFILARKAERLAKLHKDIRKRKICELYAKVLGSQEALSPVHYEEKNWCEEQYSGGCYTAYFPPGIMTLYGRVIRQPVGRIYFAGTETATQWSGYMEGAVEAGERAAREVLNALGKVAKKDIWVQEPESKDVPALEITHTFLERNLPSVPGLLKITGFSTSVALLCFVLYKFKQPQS

[9] = system: PC-12; experiment: Cytotoxicity in rat PC-12 cells assessed as cell viability measured at 30 uM for 24 hrs by MTT assay; assay type: functional, cell-based
[10] = system: PC-12; experiment: Cytotoxicity in rat PC-12 cells assessed as cell viability incubated for 24 hrs by MTT assay; assay type: functional, cell-based; details: PC-12, 24 h
[11] = Neurotoxicity in rotenone induced at rat PC-12 cells assessed as cell viability pretreated with compound for 4 hrs followed by rotenone addition measured after 24 hrs by MTT assay; assay type: toxicity, cell-based
[12] = Neurotoxicity in rotenone induced at rat PC-12 cells assessed as cell viability at 30 uM pretreated for 4 hrs followed by rotenone addition measured after 24 hrs by MTT assay (reference value: 53.4 +/- 2.6%); assay type: toxicity, cell-based; details: time 28 hrs, read-out: Activity
[13] = system: PC-12; experiment: Cytotoxicity in rat PC-12 cells assessed as cell viability measured upto 30 uM for 24 hrs by MTT assay; assay type: functional, cell-based
[14] = system: PC-12; experiment: Neuroprotective activity against 6-OHDA-induced cytotoxicity in rat PC-12 cells for 4 hrs followed by exposure to 6-OHDA measured after 24 hrs by MTT assay; assay type: functional, cell-based; details: dose 0.1-30 µM, time 28.0 hrs
[15] = system: PC-12; experiment: Cytotoxicity in rat PC-12 cells assessed as cell viability measured at 30 uM for 24 hrs by MTT assay relative to control; assay type: functional; details: read-out: Activity

For CC1(C)Oc2c(c(O)cc3occ(-c4ccco4)c(=O)c23)CC1O (stereo unspecified), the Activity [1] was “inactive”, the Activity [2] was “Active” and the Activity [3] was “Active”.
With CCOc1ccc(-c2coc3cc4c(c(O)c3c2=O)C=CC(C)(C)O4)cc1 the Activity [4] was “inactive”, the Activity [5] was ~80% and the Activity [6] was “Active”. For the same compound, the Activity [7] was “Active”.
For CC1(C)C=Cc2c(cc3occ(-c4ccc(O)cc4)c(=O)c3c2O)O1 [ALPINUMISOFLAVONE], the IC50 [8] was 25.8 µM and the Activity [9] was “Active”.
In the case of COc1cccc(-c2coc3cc(O)c4c(c3c2=O)OC(C)(C)C(O)C4)c1 (stereo unspecified), the IC50 [10] is reported as 8 µM, the Activity [6] is reported as “Active” and the IC50 [11] is reported as 5.5 µM. The viability at 30 µM [12] was 80.3%, the Activity [13] was “inactive” and the Activity [14] was “Dose-Dependent Effect”. For the same compound, the viability at 30 µM [15] was 86%.

Source: ChEMBL document CHEMBL5352401, “Novel cudraisoflavone J derivatives as potent neuroprotective agents for the treatment of Parkinson's disease via the activation of Nrf2/HO-1 signaling” (Eur J Med Chem, 2022)
